Data as given in publication PMC11157491, “Novel Alaninamide Derivatives with Drug-like Potential for Development as Antiseizure and Antinociceptive Therapies—In Vitro and In Vivo Characterization” (ACS Chemical Neuroscience, 2024).

Assays:
[1] = system: glutamate and GABA concentrations in the hippocampus and cortex; assay: Glutamate and GABA concentrations in hippocampus and cortex of PTZ-kindled mice (LC-MS/MS); format: in vivo
From the text: After completion of behavioral tests, animals were sacrificed and the brains were collected for the analysis of glutamate and GABA concentrations in the hippocampus and cortex. No changes in glutamate and GABA concentrations were reported in the hippocampus (Figure 4A). However, statistically significant differences in the concentration of both glutamate and GABA (Figure 4B) were found in the cortex. The FST procedure increased cortical glutamate concentrations in this brain structure as compared to naive mice (p < 0.05), whereas PTZ-induced kindling caused a ∼30% decrease in glutamate concentrations in comparison to the nonkindled control group exposed to the FST test (p < 0.0001).
Concentrations of GABA and glutamate in the mouse prefrontal cortex and hippocampus were measured by the liquid chromatography-tandem mass spectrometry (LC-MS/MS) method. Standards of both analytes were purchased from Toronto Research Chemicals Inc. (Toronto, ON, Canada). The stock standard solutions of GABA and glutamate were prepared in methanol and deionized water, respectively, and stored at 4 °C. A series of solution mixtures of desired concentrations were prepared by suitable dilutions of the stock solutions. Before analysis, murine brains were homogenized in distilled water at the ratio of 50 μL/mg using a handheld pestle and a glass tube homogenizer (Potter–Elvehjem PTFE pestle and glass tube, Sigma-Aldrich). Homogenates were centrifuged at 8000g for 10 min at 4 °C, and the supernatant was diluted 10 times with 0.1% formic acid in MeCN. After addition of isotope-labeled GABA-d6 and glutamate-d5 (Toronto Research Chemicals Inc., Toronto, ON, Canada) as internal standards (10 μL at a concentration of 500 ng/mL), samples (10 μL) were deproteinized with 80 μL of 0.1% formic acid in MeCN by shaking for 10 min (IKA Vibrax VXR, Germany) and then centrifuged for 5 min at a speed of 8000g (Eppendorf miniSpin centrifuge). The obtained supernatants were transferred into the autosampler vials. Chromatographic separation was carried out on an XBridge HILIC analytical column (2.1 × 150 mm^2, 3.5 μm, Waters, Ireland) with the oven temperature set at 25 °C using the Excion LC AC HPLC system. The autosampler temperature was maintained at 15 °C, and a sample volume of 2 μL was injected into the LC-MS/MS system. […] The tandem mass spectrometer was operated at unit resolution in the selected reaction monitoring mode (SRM), monitoring the transition of the protonated molecular ions m/z 104–87 and m/z 104–69 for GABA and m/z 148–84 and m/z 148–102 for glutamate (the first pair was used as a quantifier and the second for the identity verification—qualifier). For isotope-labeled GABA-d6 and glutamate-d5 monitored pairs were m/z 110–93 and m/z 153–88, respectively. […]

NMDA = NMDA binding (antagonist radioligand); conditions: 100 μM, rat cerebral cortex
Method: (§1) Binding/functional studies were carried out commercially in Eurofins Laboratories (Poitiers, France) and Eurofins Panlabs Discovery Services Taiwan, Ltd. (New Taipei City, Taiwan) using testing procedures that were reported previously (for details, see Table S2).
Table S2. Radioligand binding and functional assays.
NMDA (antagonist radioligand) […]
(§2) Potassium channel (hERG) […]
(§3) Assays were performed commercially in Eurofins Laboratories ( Poitiers, France) or Eurofins Panlabs Discovery Services
(§4) Taiwan, Ltd. (New Taipei City, Taiwan).

mice = assay: Oxaliplatin (OXPT)-induced peripheral neuropathy, von Frey test; format: in vivo
Method: The method is based on measuring the mean force that caused the paw withdrawal reaction, i.e., pain threshold. […] In the group treated with 28 at a dose of 25 mg/kg (Figure 6C), the initial value of 5.84 ± 0.43 (baseline) was decreased to the value of 2.78 ± 0.34 (47.6% of the baseline) and 3.39 ± 0.36 (58.0% of the baseline) in the early and late phases, respectively. […] In the group treated with the test compound at a dose of 75 mg/kg, the initial value of 6.17 ± 0.56 decreased to the values of 2.93 ± 0.45 (47.5% of the baseline) and 3.61 ± 0.28 (58.5% of the baseline) in the early and late phases, respectively.
The experimental groups consisted of 10 adult male Albino Swiss mice (CD-1, 18–25 g). Each animal was tested only once. Immediately after the assay, the animals were sacrificed by cervical dislocation. Behavioral measurements were observed by trained observers. The in vivo antinociceptive assays were in accordance with Polish regulations and the European Union Directive of 22 Sept 2010 (2010/63/EU). All procedures were carried out according to the rules of the International Council on Laboratory Animal Science (ICLAS) and were approved by the Local Ethics Committee in Cracow, Poland (104/2015, 279/2019, and 614/2022). The tested substances were suspended in a 1% aqueous solution of Tween 80 and were injected i.p. 30 min prior to the test. Control group animals (negative control) were administered with an appropriate amount of vehicle (Tween 80, 1% aqueous solution, i.p.) 30 min prior to the test. […] Before formalin application, different groups of animals were injected i.p. with vehicle (10 mL/kg, negative control). The in vivo procedure for the model of capsaicin-induced nociception was previously reported;[67] the animals were pretreated with vehicle (10 mL/kg, negative control), and the dose–response of investigated compounds was evaluated at 12.5, 25, and 50 mg/kg.
Data are presented as means ± standard error of the mean (SEM). GraphPad Prism Software (v.5) was used to analyze the vast majority of data. Statistically significant differences between groups were calculated using one-way analysis of variance (ANOVA) and the post hoc Dunnett’s multiple comparison test or two-way analysis of variance (ANOVA). The criterion for significance was set at p < 0.05. The log-probit method was applied to statistically determine the ED50 values with 95% confidence limits.

AMPA = AMPA binding (agonist radioligand); conditions: 100 μM, rat cerebral cortex
Method: as §1
Table S2. Radioligand binding and functional assays. […]
AMPA (agonist radioligand) […]
as §2, §3, §4

## CC(=O)NC(C)C(=O)N1CCN(c2cccc(OC(F)(F)F)c2)CC1 (stereo not drawn) [Compound 28, N-(1-oxo-1-(4-(3-(Trifluoromethoxy)phenyl)piperazin-1-yl)propan-2-yl)acetamide]
[1]; PTZ-kindled animals vs PTZ-kindled control
  GABA concentrations in the cortex: did not affect GABA concentrations
[1]; cortex, 28 at 40 mg/kg, VPA 150 mg/kg
  cortical glutamate concentration (PTZ-kindling-induced decrease): reversed this effect
NMDA
  % inhibition of control specific binding: 5.0%
mice; 25 mg/kg, early phase (3 h after OXPT)
  pain threshold after compound, % of the baseline: 99.5%
mice; 50 mg/kg, early phase (3 h after OXPT)
  pain threshold after compound, % of the baseline: 85.4%
mice; 50 mg/kg, late phase (7 days after OXPT)
  pain threshold after compound, % of the baseline: 104.8%
mice; 75 mg/kg, early phase (3 h after OXPT)
  pain threshold after compound, % of the baseline: 121.5%
mice; 75 mg/kg, late phase (7 days after OXPT)
  pain threshold after compound, % of the baseline: 91.3%
AMPA
  % inhibition of control specific binding: –21.0%
